The values below come from patent US12304912B2, “Fused bicyclic RAF inhibitors and methods for use thereof” (Jazz Pharmaceuticals Ireland Limited, priority 2020, dated 2025).

≈ marks a conversion by molar mass, not a printed value. Where two headings read alike, the source gives them in different places.

Data set [1] concerns constitutive ERK phosphorylation in HCT-116 cells. Put plainly: HCT-116 AlphaLISA SureFire pERK1/2 cellular assay. In kind it is cell-based, human. Particulars: Homo sapiens, HCT-116; HCT116 cells, 2 hr, Abs; read-out: pERK HCT116 (2 hr) Abs pIC50 (converted). Here is the method:
HCT-116 AlphaLISA SureFire pERK1/2 Cellular Assay […] […] Assay read outs took place 2 or 24 hours after dosing with compounds. On the first day, HCT-116 cells were harvested, resuspended in growth medium (McCoys5A with Glutamax (Life Technologies 36600021) and 10% heat-inactivated fetal bovine serum (Sigma F9665)), and counted. Cells were plated in 100 μl per well in each well of a 96-well culture dish (Sigma CLS3598) to a final density of 30,000 (2 hr read) or 15,000 (24 hr read) cells per well and incubated over night at 37° C. and 5% CO2. On day 2, the growth medium was exchanged for dosing medium (McCoys5A with Glutamax (Life Technologies 36600021) and 1% heat-inactivated fetal bovine serum (Sigma F9665)) and the cells were dosed with compounds to produce a 10-point dose response, where the top concentration was 1 μM and subsequent concentrations were at 1/3 log dilution intervals. A matched DMSO control was included. The cells were subsequently incubated for either 2 or 24 hours at 37° C. and 5% CO2. After incubation, media was removed and the cells were incubated with lysis buffer containing phosphatase inhibitors for 15 minutes at room temperature. Cell lysates were transferred to a 12 area 96 well white Optiplate™ (Perkin Elmer 6005569) and incubated with anti-mouse IgG acceptor beads, a biotinylated anti-ERK1/2 rabbit antibody recognizing both phosphorylated and non-phosphorylated ERK1/2, a mouse antibody targeted to the Thr202/Tyr204 epitope and recognizing phosphorylated ERK proteins only, and streptavidin-coated donor beads. The biotinylated antibody binds to the streptavidin-coated donor beads and the phopsho-ERK1/2 antibody binds to the acceptor beads. […] Both antibodies bound to phosphorylated ERK proteins, bringing the donor and acceptor beads into close proximity. All data were analyzed using the Dotmatics or GraphPad Prism software packages. Inhibition of ERK phosphorylation was assessed by determination of the absolute IC50 value, which is defined as the concentration of compound required to decrease the level of phosphorylated ERK proteins by 50% when compared to DMSO control.
(Alpha assays give light when donor and acceptor beads are brought close together.)

The nature of the next data set: FeSSIF solubility assay. Format: physicochemical. The note with it: fed state simulated intestinal fluid (FeSSIF), thermodynamic from solid, pH 5 acetate buffer, 37° C., read-out: FESSIF Sol. Here is the method: FeSSIF Solubility Assay 1 mL of fed state simulated intestinal fluid (FeSSIF), prepared using FaSSIF/FeSSIF/FaSSGF powder (Biorelevant.com) and pH 5 acetate buffer, was added to 1.0 mg of compound and then incubated for 24 h (Bioshake iQ, 650 rpm, 37° C.). Following filtration under positive pressure, the concentration of compound in solution was assessed by LC-UV in comparison to the response for a calibration standard of known concentration (250 μM). FeSSIF solubility results are described in Tables 1-2.

Data set [2] has as its system BRAF monomers in A375 cells. The data set is described as follows: A375 AlphaLISA SureFire pERK1/2 cellular assay (monomer). Particulars: Homo sapiens, A-375; A375 cells, 1 hr; read-out: pERK A375 (1 hr) pIC50 (converted). In kind it is cell-based. Here is the method: (§1) The human HCT-116 colorectal carcinoma cell line (ATCC CCL-247) endogenously expresses the KRAS^G13D mutation, which leads to constitutive activation of the MAP kinase pathway and phosphorylation of ERK. […] Assay read outs took place 2 or 24 hours after dosing with compounds. On the first day, HCT-116 cells were harvested, resuspended in growth medium (McCoys5A with Glutamax (Life Technologies 36600021) and 10% heat-inactivated fetal bovine serum (Sigma F9665)), and counted. Cells were plated in 100 μl per well in each well of a 96-well culture dish (Sigma CLS3598) to a final density of 30,000 (2 hr read) or 15,000 (24 hr read) cells per well and incubated over night at 37° C. and 5% CO2. On day 2, the growth medium was exchanged for dosing medium (McCoys5A with Glutamax (Life Technologies 36600021) and 1% heat-inactivated fetal bovine serum (Sigma F9665)) and the cells were dosed with compounds to produce a 10-point dose response, where the top concentration was 1 μM and subsequent concentrations were at 1/3 log dilution intervals. A matched DMSO control was included. The cells were subsequently incubated for either 2 or 24 hours at 37° C. and 5% CO2. After incubation, media was removed and the cells were incubated with lysis buffer containing phosphatase inhibitors for 15 minutes at room temperature. Cell lysates were transferred to a 12 area 96 well white Optiplate™ (Perkin Elmer 6005569) and incubated with anti-mouse IgG acceptor beads, a biotinylated anti-ERK1/2 rabbit antibody recognizing both phosphorylated and non-phosphorylated ERK1/2, a mouse antibody targeted to the Thr202/Tyr204 epitope and recognizing phosphorylated ERK proteins only, and streptavidin-coated donor beads. The biotinylated antibody binds to the streptavidin-coated donor beads and the phopsho-ERK1/2 antibody binds to the acceptor beads. Plates were read on an EnVision reader (Perkin Elmer) and excitation of the beads at 680 nm with a laser induced the release of singlet oxygen molecules from the donor beads that trigger energy transfer to the acceptor beads in close proximity, producing a signal that can be measured at […]. Both antibodies bound to phosphorylated ERK proteins, bringing the donor and acceptor beads into close proximity. All data were analyzed using the Dotmatics or GraphPad Prism software packages. Inhibition of ERK phosphorylation was assessed by determination of the absolute IC50 value, which is defined as the concentration of compound required to decrease the level of phosphorylated ERK proteins by 50% when compared to DMSO control.
A375 AlphaLISA SureFire pERK1/2 Cellular Assay (Monomer)
The human A375 melanoma cell line (ATCC CRL-1619) endogenously expresses the BRAF^V600E mutation, which leads to constitutive activation of the MAP kinase pathway and phosphorylation of ERK. In BRAF^V600E mutant tumours, BRAF signals as a monomer to activate ERK. To determine whether compounds can inhibit BRAF monomers in A375 cells, they were tested using AlphaLISA® SureFire® technology (Perkin Elmer p-ERK1/2 p-T202/Y204 assay kit ALSU-PERK-A10K). The main procedure is essentially the same as described above for HCT-116 cells, with the following adjustments: The A375 cells were cultivated and dosed in Dulbecco's modified Eagle's medium containing 4.5 g/L D-glucose (Sigma D6546), 10% heat-inactivated fetal bovine serum (Sigma F9665), and 1% Sodium-Pyruvate (Sigma S8636), and seeded with a seeding density of 30,000 cells per well. No media exchange was performed before dosing with compounds to produce a 10-point dose response, where the top concentration was 10 μM and subsequent concentrations were at 1/2 log dilution intervals. Subsequently, the cells were incubated for 1 hour at 37° C. and 5% CO2 before lysis.

The test system of data set [3] is RAF dimers in HCT-116 cells. Put plainly: HCT-116 AlphaLISA SureFire pERK1/2 cellular assay (dimer). Format: cell-based. The note with it: Homo sapiens, HCT-116, 1 hr. Here is the method:
as §1
HCT-116 AlphaLISA SureFire pERK1/2 Cellular Assay (Dimer)
The human HCT-116 colorectal carcinoma cell line (ATCC CCL-247) endogenously expresses the KRAS^G13D mutation, which leads to constitutive activation of the MAP kinase pathway and phosphorylation of ERK. First generation RAF inhibitors can promote RAF dimer formation in KRAS mutant tumours leading to a paradoxical activation of the pathway. To determine whether compounds can circumvent this problem and inhibit RAF dimers in HCT-116 cells, they were tested using AlphaLISA® SureFire® technology (Perkin Elmer p-ERK1/2 p-T202/Y204 assay kit ALSU-PERK-A10K). The main procedure is essentially the same as described above, with the following adjustments: Cells were seeded with the seeding density of 30,000 cells per well. On the second day (the day of dosing) no medium change was performed and the cells were dosed with 1 μM of Encorafenib for 1 hour (at 37° C. and 5% CO2) to induce RAF dimers and promote paradoxical dimer-dependent pERK signalling. After incubation, the cells were washed, 100 μl fresh growth medium was added, and cells were dosed with compounds of interest to produce a 10-point dose response, where the top concentration was 10 μM and subsequent concentrations are at 1/2 log dilution intervals. Cells were incubated for another hour at 37° C. and 5% CO2 before lysis and processing with the pERK AlphaLISA® SureFire® kit as described above. […]

A short description of data set [4]: Microsomal stability assay, human liver microsomes (HLM). In kind it is in vitro ADME. The note with it: 0.5 mg/mL protein, 1 μM substrate. The procedure:
(§2) Microsomal Stability Assay
(§3) The stability studies were performed manually using the substrate depletion approach. Test compounds were incubated at 37° C. with cryo-preserved mouse or human liver microsomes (Corning) at a protein concentration of 0.5 mg·mL^−1 and a final substrate concentration of 1 μM. Aliquots were removed from the incubation at defined timepoints and the reaction was terminated by adding to ice-cold organic solvent. Compound concentrations were determined by LC-MS/MS analysis. The natural log of the percentage of compound remaining was plotted against each time point and the slope determined. The half-life (t1/2) and CLint were calculated using Equations 1 and 2, respectively.
(§4) HLM (human liver microsomes) and MLM (mouse liver microsomes) stability assay results are described in Tables 1-2.
(Microsomes from liver hold many membrane-bound enzymes, among them those of drug oxidation.)

Data set [5] in a line: Microsomal stability assay, mouse liver microsomes (MLM). Format: in vitro ADME. The note with it: 0.5 mg/mL protein, 1 μM substrate. The procedure: as §2, §3, §4
Data set [6] is described as follows: Plasma protein binding assay, human plasma (hPPB). Format: in vitro ADME. Particulars: 5 μM. Here is the method:
(§5) Plasma Protein Binding Assay The plasma protein binding was determined by the equilibrium dialysis method. A known concentration of compound (5 μM) in previously frozen human or mouse plasma (Sera Labs) was dialysed against phosphate buffer using a RED device (Life Technologies) for 4 hours at 37° C. The concentration of compound in the protein containing (PC) and protein free (PF) sides of the dialysis membrane were determined by LC-MS/MS and the % free compound was determined by equation 4. Data analysis was performed using Excel (Microsoft, USA). % free=(1−((PC−PF)/PC))×100 (4) hPPB (human plasma protein binding) and mPPB (mouse plasma protein binding) results are described in Tables 1-2.

Data set [7] in a line: Plasma protein binding assay, mouse plasma (mPPB). Format: in vitro ADME. Particulars: 5 μM. The procedure:
as §5

The mark [8] stands for this setting: HCT116 cells pre-dosed with 1 μM Encorafenib, read-out: pERK HCT116 dimer (1 hr) pIC50 (converted).
Where [9] appears, read: equilibrium dialysis 4 hours 37° C.
Setting [10] is: equilibrium dialysis 4 hours at 37° C.

On to `Cn1cnc2cc(-c3c[nH]c(C4COc5ccc(Oc6ccnc7c6CCC(=O)N7)cc5C4)n3)ccc21` (centres unmarked) [Compound 129, 5-[3-[4-(1-methylbenzimidazol-5-yl)-1H-imidazol-2-yl]chroman-6-yl]oxy-3,4-dihydro-1H-1,8-naphthyridin-2-one], for which, in data set [1], the IC50 is more than 1000 nM. For the same compound, the solubility thermodynamic at 24 h in the data set “FeSSIF solubility assay” was 16.7 µg/mL (≈ 33.9 µM).

Usually microsomal CLint stands for a measure of how fast metabolising enzymes remove a compound, apart from limits set by blood flow. On to `COc1ncc(-c2c[nH]c(C3COc4ccc(Oc5ccnc6c5CCC(=O)N6)cc4C3)n2)c(OC)n1` (centres unmarked) [Compound 18, 5-[3-[4-(2,4-dimethoxypyrimidin-5-yl)-1H-imidazol-2-yl]chroman-6-yl]oxy-3,4-dihydro-1H-1,8-naphthyridin-2-one], for which the IC50 in data set [2] is 10 µM; in data set [3] (setting [8]) it was 3630 nM. In addition, the microsomal CLint at 1 μM is 71.1 µL/min/mg in data set [4] and 32.9 µL/min/mg in data set [5]. The “hPPB (% free)” value in data set [6] (setting [9]) was determined as 1.2 % free. The “mPPB (% free)” value in data set [7] (setting [9]) is reported as 2.5 % free.

As to `O=C(NC1CC1)c1cc(Oc2ccc3c(c2)CC(c2nc(-c4ccccc4)c[nH]2)CO3)ccn1` (centres unmarked) [Compound 158, N-cyclopropyl-4-[3-(4-phenyl-1H-imidazol-2-yl)chroman-6-yl]oxy-pyridine-2-carboxamide], the IC50 in data set [1] is 741 nM. The microsomal CLint at 1 μM in data set [4] (37° C.) stood at 21.3 µL/min/mg; in data set [5] (37° C.), 62.8 µL/min/mg. The “hPPB (% free)” value in data set [6] (setting [10]) is 0.3 % free. Moreover, in data set [7] (setting [10]), the “mPPB (% free)” value worked out at 0.2 % free.

Take `O=C1CCc2c(Oc3ccc4c(c3)CC(c3nc(-c5ccccc5F)c[nH]3)CO4)ccnc2N1` (centres unmarked) [Compound 3, 5-[3-[4-(2-fluorophenyl)-1H-imidazol-2-yl]chroman-6-yl]oxy-3,4-dihydro-1H-1,8-naphthyridin-2-one]: the IC50 in data set [2] was 0.0437 µM; in data set [3] (setting [8]), 112 nM. Besides, the microsomal CLint at 1 μM in data set [4] came out at 30.3 µL/min/mg; in data set [5], 34.4 µL/min/mg. The “hPPB (% free)” value in data set [6] (setting [9]) was 0.2 % free. Also, the “mPPB (% free)” value in data set [7] (setting [9]) came out at 0.5 % free.

As for `Cn1cc(-c2c[nH]c(C3COc4ccc(Oc5ccnc6c5CCC(=O)N6)cc4C3)n2)cn1` (centres unmarked) [Compound 108, 5-[3-[4-(1-methylpyrazol-4-yl)-1H-imidazol-2-yl]chroman-6-yl]oxy-3,4-dihydro-1H-1,8-naphthyridin-2-one], the IC50 was 6.31 µM in data set [2]; 389 nM in data set [3] (HCT116 cells, dimer, read-out: pERK HCT116 dimer (1 hr) plC50 (converted)); more than 1000 nM in data set [1].

As to `c1ccc(-c2c[nH]c(C3COc4ccc(Oc5ccnc(Nc6nccs6)c5)cc4C3)n2)cc1` (centres unmarked) [Compound 141], the IC50 in data set [1] was more than 1000 nM. Also, the microsomal CLint at 1 μM was 1 µL/min/mg in data set [4] (37° C.) and 21.8 µL/min/mg in data set [5] (37° C.). In addition, in data set [6] (setting [10]), the “hPPB (% free)” value is less than 0.1 % free. The “mPPB (% free)” value in data set [7] (setting [10]) is on record as 0.5 % free.

Regarding `CN1CCN(Cc2cc(C(F)(F)F)c3nc(C4COc5ccc(Oc6ccnc7c6CCC(=O)N7)cc5C4)[nH]c3c2)CC1` (centres unmarked) [Compound 28], the IC50 in data set [2] was 1.82 µM. The figures for the microsomal CLint at 1 μM in data set [4] and in data set [5] were 68.1 µL/min/mg and 31.1 µL/min/mg, respectively. For the same compound, the “hPPB (% free)” value in data set [6] (setting [9]) amounted to 0.1 % free. Also, the “mPPB (% free)” value in data set [7] (setting [9]) is 0.5 % free.
